From US20230399612A1, “METHOD FOR THE GENERATION OF NEUROSPHERES” (KUGELMEIERS LTD., priority 2020, published 2023)
Where two headings read alike, the source gives them in different places.

System: Hi-Q organoids
Test: Calcium imaging in sections of Hi-Q brain organoids (Oregon Green BAPTA 1)
Format: cell-based, human
Conditions: for calcium signals on addition of the substance: more evident in older than in younger organoids, FIG. 4C-D

| Molecule | response of organoids to added transmitter (calcium imaging) (Day 30 organoids, FIG. 4C) | response of organoids to added transmitter (calcium imaging) (Day 40 organoids, FIG. 4D) | calcium signals on addition of the substance | also measured |
| --- | --- | --- | --- | --- |
| NCCCC(=O)O [GABA] | respond | respond | spike in calcium signals |  |
| NiCl2 |  |  |  | effect on the response to GABA (blocker added, calcium signal evoked by GABA): blocked |
| NS(=O)(=O)c1cccc2c1c([N+](=O)[O-])cc1nc(O)c(O)nc12 [NBQX] |  |  |  | effect on calcium signals evoked by GABA or glutamate (involvement of AMPA receptors) (blocker added): blocked |
| NC1=N[C@H](O)[C@H]2[C@H]3O[C@]4(O)O[C@@H]([C@@H](O)[C@@]2(N1)[C@@H]4O)[C@]3(O)CO [TTX, tetrodotoxin] |  |  |  | effect on the response to GABA: not altered; inhibition of sodium channels in the brain organoids, analyzed by calcium imaging: inhibits sodium channels |
| glutamate | no response | respond | spike in calcium signals |  |
